ChEMBL document CHEMBL4251695, “Data Sets Representative of the Structures and Experimental Properties of FDA-Approved Drugs” (ACS Med Chem Lett, 2018)

How the values were obtained:
Assay type in all cases: ADME, organism-based
Conditions in all cases: in vivo
[1] = Cmax in human
[2] = Clearance in human
[3] = organism: Homo sapiens; experiment: Half life in human

Row | Structure (SMILES) | clearance [2] [mL/min] | other results
1 | CC(C)C[C@H]1C(=O)N2CCC[C@H]2[C@]2(O)O[C@](NC(=O)[C@@H]3C=C4c5cccc6[nH]c(Br)c(c56)C[C@H]4N(C)C3)(C(C)C)C(=O)N12 [BROMOCRIPTINE] | – | Cmax [1]: 0.711 nM
2 | CCCCC[C@H](O)/C=C/[C@H]1[C@H](O)CC(=O)[C@@H]1CCCCCCC(=O)O [ALPROSTADIL] | 115000 | –
3 | COc1cc2c(cc1OC)[C@@H](Cc1cc(OC)c(OC)c(OC)c1)[N+](C)(CCCOC(=O)CC/C=C/CCC(=O)OCCC[N+]1(C)CCc3cc(OC)c(OC)cc3[C@H]1Cc1cc(OC)c(OC)c(OC)c1)CC2 (some centres undefined) | – | t1/2 [3]: 2 min
4 | Nc1ccn([C@@H]2O[C@H](CO)[C@@H](O)[C@@H]2O)c(=O)n1 [CYTARABINE] | 0.233 | –
